Assays:
[1] = test system: subclinical skin damage in unblemished skin; experiment: Topical treatment of unblemished skin of participants, observed skin reaction (photographs); format: in vivo, human; conditions: participant
Description: The response of sun or UV damaged cells to Imiquimod in these non-suspicious areas are indicative of altered cells. Clearly subclinical skin damage or AK may exist in the skin but may not be clinically evident in their early development as appearing in FIGS. 1A, 2A, 3A, 4A, 5A, 6A, and 7A.
The detailed method of treatment of subclinical skin damage and of inducing an immune cell response in unblemished skin involves topical application of formulation essentially comprising Imiquimod in an effective amount during a cycle of therapy that is in the range of two to four weeks; and observing the skin for the response; wherein the composition is administered once or twice daily during the cycle of therapy, which is repeated at least once on a substantially annual basis.

normal human skin = conditions: cited from earlier work

## CC(C)Cn1cnc2c(N)nc3ccccc3c21 [Imiquimod]
[1]; FIG. 1B, chest region, 11 days of treatment, strength about 3.75%
  skin reaction after treatment: severe erythema
[1]; FIG. 2B, chest region, fourteen days of treatment, strength about 5.00%
  skin reaction after treatment: moderate erythema
[1]; FIG. 3B, chest region, fourteen days of treatment, strength about 3.75%
  skin reaction after treatment: moderate erythema
[1]; FIG. 5B, forehead region, fifteen days of treatment, strength about 3.75%
  skin reaction after treatment: moderate reaction
[1]; FIG. 6B, scalp region, ten days of treatment, strength about 2.5%
  skin reaction after treatment: moderate reaction
[1]; FIG. 7B, cheek region, fourteen days of treatment, strength about 2.5%
  skin reaction after treatment: moderate reaction
[1]; FIG. 8A, cheek region, fourteen days of treatment, strength about 2.5%
  skin reaction after treatment: moderate reaction
[1]; FIG. 8B and 8C, forehead region, fourteen days of treatment, strength about 2.5%
  skin reaction after treatment: moderate reaction
[1]; FIGS. 4B and 4C, cheek region, twelve days of treatment, strength about 2.5%
  skin reaction after treatment: mild reaction
Normal human skin
  effect on IL-10 production: reduced IL-10 production
  effect on resident T cells: induced activation of resident T cells
